System: Plasmodium falciparum
Test: GSK_TCMDC: Inhibition of Plasmodium falciparum 3D7 in whole erythrocytes, using parasite LDH activity as an index of growth.
Type: functional, organism-based
Settings: Plasmodium falciparum, 3D7

SMILES	XC50
Cc1nc(Nc2ccc(C)c(Cl)c2)c2c(C)noc2n1	886 nM
C[C@H](Nc1c(Nc2ccc3[nH]ccc3c2)c(=O)c1=O)C1CCCCC1	213 nM
CN(C)CCc1coc2ccc(C(=O)Nc3ccc(-c4ccc(O)cc4)cc3)cc12	1080 nM
CCN(CC)CCNc1ccnc2c3ccccc3n(C)c12	238 nM
O=S(=O)(c1ccc(OCc2ccc(Cl)cc2)cc1)c1cc2c(cc1OCc1ccccc1)CCN(CC1CC1)CC2	1110 nM
Cn1cncc1CCCN(Cc1ccc(-c2ccc(C(F)(F)F)cc2)cc1)C(=O)Cn1c(CCc2cccc(F)c2F)cc(=O)c2cccnc21	1250 nM
O=S(=O)(NCCN1CCCC1)c1cccc(-c2ccc(CNC3Cc4ccccc4C3)cc2)c1	660 nM
O=C(Nc1cccc(CN2CCCN(Cc3cccc(Cl)c3)CC2)c1)c1ccc(-c2ccccc2)cc1	1230 nM
CN(C)c1ccc(-c2csc(C(=O)NC3CCN(CCC(C)(C)C)C3)c2)cc1 (stereo unspecified)	971 nM
CCCCc1ccc(C(=O)Nc2ccc3nc(N4CCN(CC)CC4)cc(C)c3c2)cc1	905 nM
COC(=O)c1cccc(NC(=O)NC2CCN(c3ccnc(NCc4ccc(F)cc4)n3)CC2)c1	809 nM
COc1ccc(C(c2ccc(N(C)C)cc2)c2ccc(N(C)C)cc2)cc1	64.8 nM
O=S(=O)(c1ccccc1)C1CC1	724 nM
COc1cc(Nc2nccc(N3CCC(NC(=O)c4cccc(C#N)c4)C3)n2)cc(OC)c1OC (stereo unspecified)	992 nM
COc1ccc2nccc([C@@H](O)CN3CCC(NCc4ccc(OC)c(NC(C)=O)c4)CC3)c2c1	835 nM
CCCCCOc1ccc(/N=C2\C=C(O)C(=O)c3ccccc32)cc1	243 nM
Cc1cc(-c2ccc3c(c2)CCN(CCC2CCC(NC(=O)/C=C/c4cccc(F)c4)CC2)CC3)on1 (stereo unspecified)	746 nM
O=C(Nc1cccc(-c2nn3ncccc3c2-c2ccnc(Nc3cccnc3)n2)c1)c1c(F)cccc1F	528 nM
COc1ccc2nc3cc(Cl)ccc3c(NCCCCN)c2c1	732 nM
Cn1nccc1C(=O)NCCNCc1ccc(-c2ccc(-c3nc4cc(C(F)(F)F)ccc4[nH]3)cc2)cc1	145 nM
COC(=O)c1c(NC(=O)c2cccc(C(F)(F)F)c2)sc2c1CCN(Cc1ccccc1)C2	1340 nM
Fc1ccc(-c2cc3ncnc(N4CCN(CCN5CCCC5)CC4)c3s2)cc1	740 nM
CCNc1cc(C)nc(Nc2ccc(NC(=O)C3CCCC3)cc2)n1	1120 nM
CNCc1cccc(-c2ccc3ccnc(N)c3c2)c1	93.1 nM
Fc1ccc2[nH]c(-c3cccc(-c4cccc(CNCCc5ccncc5)c4)c3)nc2c1	170 nM
Nc1ncc(-c2ccc(Cl)c(Cl)c2)c(N)n1	727 nM

SMILES	XC50
CC(C)c1ccc(CN2CCC(NC(=O)c3ccc(-c4cccc(F)c4)s3)CC2)cc1	1330 nM
COc1cc(F)c2nccc([C@@H](O)CN3CCC(NC(=O)OCc4ccccc4)C(F)C3)c2c1 (stereo partly specified)	407 nM
NC(=O)c1cc(-c2ccccc2)cc2c(C3CCC(NCc4ccccc4)C3)c[nH]c12 (stereo unspecified)	910 nM
COc1ccc(OC)c(CC2c3ccc(Br)c(O)c3CCN2C)c1 (stereo unspecified)	754 nM
O=C(Nc1ccc(S(=O)(=O)N2CCCC2)cc1)c1cc(-c2cccnc2)nc2ccc(Cl)cc12	300 nM
CC(C)NCc1cccc(-c2cccc(-c3nc4cc(F)ccc4[nH]3)c2)c1	285 nM
CN(C)Cc1c(O)ccc2[nH]c(-c3ccc(OC(F)(F)F)cc3)nc12	727 nM
Cc1ccc2[nH]c(Nc3ccc(Nc4nc5cc(C)ccc5[nH]4)c(C)c3)nc2c1	769 nM
COc1ccc(NC(C)C(=O)Nc2ccc(Br)cc2)cc1S(=O)(=O)N1CCCCC1 (stereo unspecified)	221 nM
CCN(CCCN1CCCCC1)c1cc(C)nc(Nc2ccc(C)cc2Cl)n1	339 nM
O=C(NCc1ccc(Cl)cc1)c1ccc(CN2CCCN(Cc3cccc(O)c3)CC2)cc1	1170 nM
O=C(Nc1ccc(O)c(-c2nc3ccccc3[nH]2)c1)c1ccc([N+](=O)[O-])cc1	318 nM
COc1cccc(CCNCc2ccc(-c3cccc(CNC4CCCC4)c3)cc2)c1	734 nM
COc1ccc2nccc(NCC3(O)CCC(NCc4ccc5c(n4)NC(=O)CS5)CC3)c2n1 (stereo unspecified)	689 nM
O=C(Nc1ccc(-c2nc3ccccc3[nH]2)cc1)c1ccc(Cl)c([N+](=O)[O-])c1	802 nM
Cc1cc(Nc2nc(NCc3cccnc3)nc3ccccc23)n[nH]1	852 nM
CCN(CC)CCN(Cc1ccc(-c2ccc(C(F)(F)F)cc2)cc1)C(=O)Cn1c(CCc2cccc(F)c2F)nc(=O)c2cc(F)ccc21	826 nM
Cc1cc(C)c(NC(=O)N[C@H]2CCN(CCCCCNC(=O)/C=C/c3ccc(Cl)c(Cl)c3)C2)c(C)c1	950 nM
Cc1ccc(-c2cc(C(=O)Nc3ccc(S(=O)(=O)N4CC(C)OC(C)C4)cc3)[nH]n2)c(O)c1 (stereo unspecified)	608 nM
O=C(c1cc(-c2cccs2)n[nH]1)N1CCN(S(=O)(=O)c2ccc(Br)cc2)CC1	357 nM
COc1ccc(CNc2ccnc(-n3cnc4cc(C)c(C)cc43)n2)cc1Cl	274 nM
Cc1ccc(NC(=O)c2ccc(N3CCN(c4ccncc4)CC3)cn2)cc1F	1570 nM
Cc1nc(C)c(-c2ccc(C(=O)c3ccc(Cl)cc3)cc2)c(O)c1Cl	535 nM
Oc1ccc(CN2CCC(NCc3cccc4ccccc34)CC2)cc1	1200 nM
O=C(NCCCCCN1CCC(c2c[nH]c3ccccc23)CC1)Nc1cccc(Br)c1	1110 nM
CCOC(=O)c1cn(CC)c2cc(OCc3ccccc3)ccc2c1=O	947 nM

SMILES	XC50
COc1ccc2nccc([C@@H](O)CN3CCC(NCc4cc5ccccc5cn4)CC3)c2n1	918 nM
COc1cc(-c2nnc(SCC(=O)Nc3cc(C)on3)n2C)cc(OC)c1O	177 nM
CN(C)CCCNCCS(=O)(=O)c1cccc(Nc2ccc(-c3cccc(N(C)C)c3)cn2)c1	859 nM
O=C(Nc1ccc(OC2CCN(Cc3ccc(F)cc3)C2)c(Cl)c1)c1ccsc1 (stereo unspecified)	538 nM
CCN1CCN(Cc2ccc(NC(=O)c3cc4ccc5cccnc5c4[nH]3)cc2)CC1	848 nM
CS(=O)(=O)Cc1cccc(Nc2ncc(Cl)c(Nc3cccnc3C(N)=O)n2)c1	168 nM
c1ccc(COc2ccc(Nc3ncnc4ccc(-c5ccc(CN6CCSCC6)o5)cc34)cc2)cc1	827 nM
N#Cc1ccc(C(=O)Nc2cc(-c3cccc(O)c3)cc3[nH]ncc23)cc1	1370 nM
Fc1ccc2[nH]c(-c3ccc(-c4ccc(CN5CCN(c6cnccn6)CC5)cc4)s3)nc2c1	617 nM
NC1=NC(c2ccccc2)(c2ccccc2)C(=O)N1CCOc1ccccc1	844 nM
COc1ccc(CNC2CCN(C)CC2)cc1-c1ccc(S(=O)(=O)NCc2ccccc2)c(C)c1	992 nM
Cc1cccc(C(=O)Nc2ccnc(N3CCC(N(C)Cc4cccc(C#N)c4)CC3)c2)c1	1100 nM
N#Cc1ccc(-c2ccc(OCC(O)CN3CCCN(Cc4cccc(O)c4Cl)CC3)cc2)cc1 (stereo unspecified)	690 nM
CCCNC(=O)c1ccc(N2CCC(c3ccccc3C)CC2)nc1	1520 nM
COc1ccc(C[C@H]2NC[C@H](O)[C@H]2OC(C)=O)cc1 [ANISOMYCIN]	138 nM
CN1CCCCC1CCc1cc(C(=O)Nc2ccc(-c3ccc(O)cc3)cc2)ccc1O (stereo unspecified)	1110 nM
CN(C)CCN(Cc1ccccc1)c1ccc([N+](=O)[O-])cc1C(F)(F)F	776 nM
O=C(NC1CCN(Cc2ccccc2)C1)c1ccc(Nc2ccc(Br)cc2)nc1 (stereo unspecified)	1080 nM
COc1ccc(NC(=O)/C=C/c2ccccc2Cl)cc1OCCN1CCC(NC2CC2)CC1	842 nM
CCc1ccc(C(=O)NC(=O)c2ccccc2O)cc1	610 nM
O=C(/C=C/c1ccc(Cl)c(Cl)c1)NC1CCC(CN2CCC(c3nc4cccnc4[nH]3)CC2)CC1 (stereo unspecified)	1230 nM
CCc1cc(Cc2cnc(N)nc2N)cc(CC)c1OC	1130 nM
CC(C)C1CCc2nc(N)nc(N)c2C1 (stereo unspecified)	139 nM
FC(F)(F)c1ccccc1OCc1cc(-c2ccncc2)c(COc2ccccc2C(F)(F)F)cc1C1=CCNCC1	890 nM
Cc1cc(N2CCCN(CC3CCCCC3)CC2)nc(Nc2ccc(Br)cc2)n1	943 nM
Cc1ccc(NC(=O)c2ccc3ncccc3c2)cc1OC1CCN(C(C)C)C1 (stereo unspecified)	990 nM

SMILES	XC50
N#CCCN1CCN(Cc2ccc(-c3cccc(-c4nc5cc(F)ccc5[nH]4)c3)cc2)CC1	972 nM
NS(=O)(=O)c1cccc(-c2ccc3c(O)ncnc3c2)c1	946 nM
COc1ccc(-n2cc(CNCCCn3ccnc3)c(-c3cccc(F)c3)n2)cc1	1060 nM
CC(=O)N(C)C1CCN(Cc2cccc(-c3ccc(-c4nc5cc(F)ccc5[nH]4)cc3)c2)C1 (stereo unspecified)	957 nM
COc1cccc(OC)c1CN1CCC(N(C)CCCCCCCCCN2CCC(OC(=O)Nc3ccccc3-c3ccccc3)CC2)CC1	319 nM
CCCN(CCC)CCCCC(C)Nc1c2ccc(Cl)cc2nc2ccc(OC)cc12 (stereo unspecified)	137 nM
COc1ccc(CCNCCCCCCNCCCc2ccc(Cl)cc2)cc1OC	951 nM
Cc1c(C)n(C2CCCCC2)c2ncnc(OC3CCN(CC(=O)NC4CC4)CC3)c12	1240 nM
C[C@H]1CN(Cc2cccc(-c3cc(CNC(=O)c4cccc(CN5CCN(CCOc6ccccc6)CC5)c4)ccc3F)c2)CCN1	1110 nM
CN1CCN(CCCN(Cc2cccc(-c3cccc(CNC4CCCC4)c3)c2)C(=O)/C=C/c2ccccc2)CC1	777 nM
CC[C@H]1CN(Cc2ccccc2Br)CC[C@H]1CCCc1ccnc2ccc(O)cc12	1000 nM
Cc1csc(-c2nc(NCCc3c(C)noc3C)ncc2-c2ccsc2)n1	177 nM
Nc1ccc(-c2cnc3[nH]cc(-c4ccc(C(=O)O)cc4)c3c2)cn1	964 nM
Oc1c(CN2CCC(Cc3ccccc3)CC2)cc(Cl)c2cccnc12	881 nM
CN(c1ccc2c(c1)nc(NC(=O)C1(c3cc(F)ccc3F)CC1)n2C)c1ccnc(Nc2cccc(CS(C)(=O)=O)c2)n1	1100 nM
CN(C)C(=O)CC(=O)NCc1cccc(Cl)c1	711 nM
Cc1[nH]c(C)c(-c2ccc(-c3cccc(OC(F)(F)F)c3)nc2)c(=O)c1Cl	74.5 nM
COc1cccc(CC(=O)NC2CCN(c3ccnc4cc(Cl)ccc34)C2)c1 (stereo unspecified)	704 nM
COc1cc(NC(=O)N2CCc3ccc(OCCN4CCCCC4)cc32)cc(C(F)(F)F)c1	266 nM
CC(CNC1CCN(CCn2c(=O)ccc3ccc(F)cc32)CC1)c1ccccc1 (stereo unspecified)	1270 nM
NOCCCCOc1ccccc1	177 nM
COc1ccc(Nc2ncc(Cl)c(Nc3cccnc3C(N)=O)n2)cc1N1CCN(C)CC1	225 nM
CN1CCN(c2ccc(-c3cccc(NC(=O)c4cccc([N+](=O)[O-])c4)c3)nn2)CC1	527 nM

Reference: ChEMBL document CHEMBL1157539, “Thousands of chemical starting points for antimalarial lead identification” (Nature, 2010)
